This test has as its system SK-N-SH neuroblastoma cell. Put plainly: Serum deprivation assay, neuroblastoma cell survival (neutral red incorporation). The test is classed as cell-based, Human. Conditions: dose range of 1-10µM, SK-N-SH cells. The source says: Serum provides survival factors (ex: growth factors) necessary to cell viability in culture conditions. According to the serum concentration it is possible to modulate the state of the cell viability. Total suppression of these components triggers cell death via apoptosis or necrosis. Causes of cell death could be oxidative stress and free radical accumulation, mitochondrial dysfunction or imbalanced calcium homeostasis. Human SK-N-SH is a neuronal cell line usually cultured in serum containing medium. Serum withdrawal in the cell culture condition provides a cell-based assay allowing the study of neuroprotection and the screening for drugs capable of protecting cells from death or delaying cell death (Ba et al. (2003) The establishment of a reliable cytotoxic system with SK-N-SH neuroblastoma cell culture. J Neurosci. Methods 123:11-22, Green et al. (1997) 17α-oestradiol exerts neuroprotective effect on SK-N-SH cells. J Neurosci. 17(2):511-515) SK-N-SH cells (passage 35) were obtained from ECACC. […] Cell viability was assessed 48h later. […] The dye (3mg/mL) is allowed to be taken up by the cells one hour at 37°C, 5% CO2, and is subsequently extracted by mixture of acetic acid and ethanol (1/[…]) and measured at 540 nm. […]

The structures appear in SMILES notation.

For the compound `CC(Oc1ccccc1)C(=O)N[C@@H]1C(=O)N2[C@@H]1SC(C)(C)[C@@H]2C(=O)O` (stereo partly drawn) [phenethicillin, (2S,5R,6R)-3,3-Dimethyl-7-oxo-6-[(1-oxo-2-phenoxypropyl)amino]-4-thia-1-azabicyclo[3.2.0]heptane-2-carboxylic acid], the neuroblastoma cell death result is “significantly delayed neuroblastoma cell death”.
